This note sets out measurements from publication PMC3925156, “Β-Amylase from Starchless Seeds of Trigonella Foenum-Graecum and Its Localization in Germinating Seeds” (PLoS ONE, 2014).

As usually defined, the pKi is the negative decadic logarithm of the Ki, by convention in mol/L. Low values mean a high Ki, high ones a low Ki.

In the assay the target is T1, Fenugreek β-amylase.
T1 construct: gene BMY1; native, purified from ungerminated seeds (acetone, DEAE-cellulose, glycogen precipitation)
The assay is described as follows: starch hydrolysis assay, Dixon plot. The format is biochemical, Trigonella foenum-graecum. The conditions noted are these: competitive; starch substrate, pH 5.0, 30°C, 10 min preincubation.

pKi: −log10 of the molar value.

`OC[C@H]1O[C@@](CO)(O[C@H]2O[C@H](CO)[C@@H](O)[C@H](O)[C@H]2O)[C@@H](O)[C@@H]1O` [sucrose] showed a pKi of 2.63.
The same measure for `OC[C@H]1O[C@@H]2O[C@H]3[C@H](O)[C@@H](O)[C@@H](O[C@H]4[C@H](O)[C@@H](O)[C@@H](O[C@H]5[C@H](O)[C@@H](O)[C@@H](O[C@H]6[C@H](O)[C@@H](O)[C@@H](O[C@H]7[C@H](O)[C@@H](O)[C@@H](O[C@H]1[C@H](O)[C@H]2O)O[C@@H]7CO)O[C@@H]6CO)O[C@@H]5CO)O[C@@H]4CO)O[C@@H]3CO` [α-cyclodextrin]: 2.40.
